Values of other authors as cited in US6051572A, “Azetidine, pyrrolidine and piperidine derivatives” (Merck Sharp & Dohme Ltd., priority 1995, dated 2000).

Settings: therapeutic doses

Structure (SMILES): CNS(=O)(=O)Cc1ccc2[nH]cc(CCN(C)C)c2c1 [sumatriptan]
- adverse events in humans: certain adverse cardiovascular events
